{"source": "patent US6262108A", "about": "“Medicinal use of cromoglycic acid compounds” (Kyoto Pharmaceutical Industries, Ltd., priority 1997, dated 2001)", "tested_on": "Type IV allergic dermatitis", "assay": "Type IV allergic dermatitis (picryl chloride) auricle swelling", "format": "in vivo, male ICR mice", "protocol": "Male 6-week-old ICR mice (Clea Japan, Inc.) were divided into two groups of control group and administration group containing 8-9 mice each. A 0.5% methylcellulose solution (10 ml/kg) was forcefully administered orally to the control group and diethyl acetoacetylcromoglycate (100 mg/kg) was forcefully administered orally to the administration group twice a day for 14 days for each group. After the initial administration at day 8 of the administration, pentobarbital sodium (55 mg/kg) was intraperitoneally administered to each mouse and the abdomen was shaved. 5% Picryl chloride (50 μl) dissolved in acetone-olive oil (mixing ratio, 1:4) was applied to the shaved portion (diameter about 2 cm). After the initial administration at day 5 after the application (day 12 of administration), all mice were anesthetized with ether and the thickness of both auricles was measured with a dial thickness gauge (Mitutoyo Co.). […] After 48 hours from this antigen challenge, the thickness of both auricles was measured with a dial thickness gauge under ether anesthesia.\nThe difference between the thickness of the auricle applied with the solvent and the thickness of the auricle applied with the antigen was measured for each mouse.", "data": [{"smiles": "CCOC(=O)c1cc(=O)c2c(OCC(COc3cccc4oc(C(=O)OCC)cc(=O)c34)OC(=O)CC(C)=O)cccc2o1", "note": "[Example 1, Diethyl Acetoacetylcromoglycate]", "values": [{"measurement": "Increase in thickness of auricle after application of antigen", "setting": "100 mg/kg orally twice a day for 14 days, 48 hr after applying 0.5% picryl chloride solution, mean ± standard error (n = 8-9), control 0.045 ± 0.003, p < 0.01", "result": "0.031 ± 0.003", "unit": "mm"}, {"measurement": "effect on swelling of the auricle (in words)", "setting": "100 mg/kg orally twice a day, 48 hours after picryl chloride challenge, t-test with control group", "result": "significant inhibitory action on the swelling of the auricle"}]}]}
